US20160106654A1, “ADDITIVE OR SYNERGISTIC SUNSCREEN, ANTIOXIDANT, AND DNA REPAIR ENZYME COMPOSITION” (US CosmeceuTechs, LLC, priority 2014, published 2016)

Columns and labels:
[1] = system: cyclobutane pyrimidine dimer (CPD) and 8-oxo-7,8-dihydro-2′-deoxyguanosine (8OHdG) formation, and protein carbonylation; assay: Combined protection score (CPD, 8OHdG, protein carbonylation), normalized for concentration; settings: for Total Score: a maximum total score is 60
[2] = system: Normal human epidermal keratinocytes (NHEK); assay: NHEK, UVB, and DNA damage analysis assay; format: cell-based; settings: 5 μg/mL; for inhibition at 5 µg/mL: Homo sapiens, light or radiation study; for 8-oxoG inhibition (%) / CPD inhibition (%): n = 2
[3] = system: Normal human epidermal keratinocytes (NHEK); assay: NHEK, UVB, and protein carbonylation assay; format: cell-based; settings: 5 μg/mL; for inhibition at 5 µg/mL: Homo sapiens, light or radiation study, n = 2, read-out: PC inhibition (%); for PC inhibition (%): n = 2
Excerpt: The antioxidant(s) are preferably selected from those which protect against and/or prevent protein carbonylation (PC), protein glycation, lipidation, lipid glycation, protein alkylation, and/or lipid alkylation. Our system of evaluation from US 2006/0171886 A1, which may be modified to include a protein carbonylation, protein glycation, and/or protein alkylation analysis, may be used to evaluate the effectiveness of substances. Test results for selected antioxidants in the protection of human skin against protein carbonylation are shown below in Table 2.

[4] = n = 2, read-out: 8-oxoG inhibition (%)
[5] = n = 2, read-out: CPD inhibition (%)

Cc1c(C)c2c(c(C)c1O)CC[C@@](C)(CCC[C@H](C)CCC[C@H](C)CCCC(C)C)O2 [α-Tocopherol]
8oxo Score [1]: 18
CPDs Score [1]: 16
PC Score [1]: 12
Total Score [1]: 46

O=C(/C=C/c1ccc(O)c(O)c1)O[C@@H]1C[C@](O)(C(=O)O)C[C@@H](O)[C@H]1O [Chlorogenic Acid]
inhibition at 5 µg/mL [2, 4]: 52.5%
inhibition at 5 µg/mL [2, 5]: 36%
inhibition at 5 µg/mL [3]: 0%

COc1cc(/C=C/C(=O)O)ccc1O [Ferulic Acid]
inhibition at 5 µg/mL [2, 4]: 41.1%
inhibition at 5 µg/mL [2, 5]: 15.7%
inhibition at 5 µg/mL [3]: 0%
8oxo Score [1]: 19
CPDs Score [1]: 17
PC Score [1]: 10
Total Score [1]: 46

O=C(O[C@@H]1Cc2c(O)cc(O)cc2O[C@@H]1c1cc(O)c(O)c(O)c1)c1cc(O)c(O)c(O)c1 [Epigallocatechin Gallate]
8-oxoG inhibition (%) [2]: 41.9%
CPD inhibition (%) [2]: 44.5%
PC inhibition (%) [3]: 100%
8oxo Score [1]: 18
CPDs Score [1]: 15
PC Score [1]: 3
Total Score [1]: 36

Oc1ccc(C=Cc2cc(O)cc(O)c2)cc1 [Resveratrol]
inhibition at 5 µg/mL [2, 4]: 40.6%
inhibition at 5 µg/mL [2, 5]: 51.9%
inhibition at 5 µg/mL [3]: 0%
8oxo Score [1]: 18
CPDs Score [1]: 17
PC Score [1]: 12
Total Score [1]: 47

O=c1c(O)c(-c2ccc(O)c(O)c2)oc2cc(O)cc(O)c12 [Quercetin]
inhibition at 5 µg/mL [2, 4]: 42.4%
inhibition at 5 µg/mL [2, 5]: 45.7%
inhibition at 5 µg/mL [3]: 0%

O=C1O[C@H]([C@@H](O)CO)C(O)=C1O [L-Ascorbic Acid]
inhibition at 5 µg/mL [2, 4]: 44.1%
inhibition at 5 µg/mL [2, 5]: 33.1%
inhibition at 5 µg/mL [3]: 87.2%
8oxo Score [1]: 20
CPDs Score [1]: 16
PC Score [1]: 0
Total Score [1]: 36

C[N+](C)(C)[C@@H](Cc1c[nH]c(=S)[nH]1)C(=O)[O-] [L-Ergothioneine]
PC inhibition (%) [3]: 100%
8oxo Score [1]: 14
CPDs Score [1]: 17
PC Score [1]: 16
Total Score [1]: 47

NCCC(=O)N[C@@H](Cc1cnc[nH]1)C(=O)O [L-Carnosine]
8-oxoG inhibition (%) [2]: 45.0%
CPD inhibition (%) [2]: 51.6%
PC inhibition (%) [3]: 100%
8oxo Score [1]: 17
CPDs Score [1]: 18
PC Score [1]: 17
Total Score [1]: 52
